Test: xn = mol fraction of the nth substance listed
Settings: 101 kPa, Liquid; for viscosity: Capillary tube (Ostwald / Ubbelohde) method; for speed of sound: Frequency=2 MHz, Linear variable-path acoustic interferometer; for mass density: Pycnometric method

CCCCC(C)O (stereo not given) [2-hexanol] + Cc1ccccc1
Settings	mass density, 298.15 K [kg/m3]	mass density, 308.15 K [kg/m3]	speed of sound, 298.15 K [m/s]	speed of sound, 308.15 K [m/s]	viscosity, 298.15 K [mPa·s]	viscosity, 308.15 K [mPa·s]
x2 = 0	810.84	801.75	1290	1255	4.105	2.92
x2 = 0.0497	812.91	803.69	1286	1251	3.548	2.566
x2 = 0.1007	815.08	805.85	1284	1245	3.087	2.273
x2 = 0.1588	817.53	808.16	1281	1243	2.741	1.935
x2 = 0.1993	819.29	809.89	1278	1240	2.427	1.703
x2 = 0.252	821.5	812.03	1274	1237	2.11	1.519
x2 = 0.2999	823.59	813.99	1270	1235	1.849	1.303
x2 = 0.3495	825.77	816.07	1269	1232	1.619	1.153
x2 = 0.4016	828.16	818.34	1267	1230	1.439	1.046
x2 = 0.4468	830.21	820.35	1265	1229	1.318	0.962
x2 = 0.5012	832.7	822.9	1265	1228	1.165	0.85
x2 = 0.5502	835.1	825.27	1264	1228	1.061	0.794
x2 = 0.6003	837.61	827.79	1263	1228	0.953	0.766
x2 = 0.6492	840.23	830.36	1267	1229	0.92	0.689
x2 = 0.7008	843.05	833.28	1268	1230	0.866	0.671
x2 = 0.7476	845.75	835.92	1271	1232	0.84	0.611
x2 = 0.8006	848.93	839.1	1276	1237	0.762	0.579
x2 = 0.8502	852.09	842.25	1280	1242	0.686	0.561
x2 = 0.8945	855.01	845.2	1286	1249	0.649	0.531
x2 = 0.9407	858.09	848.38	1294	1257	0.638	0.527

CCCCCCC(C)O (stereo not given) [2-octanol] + Cc1ccccc1
Settings	mass density, 298.15 K [kg/m3]	mass density, 308.15 K [kg/m3]	speed of sound, 298.15 K [m/s]	speed of sound, 308.15 K [m/s]	viscosity, 298.15 K [mPa·s]	viscosity, 308.15 K [mPa·s]
x2 = 0	817.08	809.89	1328	1292	6.429	4.365
x2 = 0.0494	818.49	811.13	1323	1285	5.547	3.837
x2 = 0.0991	819.89	812.4	1317	1280	4.813	3.373
x2 = 0.1497	821.39	813.76	1313	1274	4.186	2.975
x2 = 0.1999	822.91	815.11	1306	1268	3.559	2.563
x2 = 0.2511	824.47	816.48	1299	1261	3.069	2.264
x2 = 0.2996	826.03	817.85	1294	1257	2.652	1.986
x2 = 0.354	827.83	819.46	1289	1250	2.239	1.685
x2 = 0.3998	829.43	820.91	1285	1247	1.966	1.488
x2 = 0.4469	831.12	822.49	1279	1243	1.69	1.276
x2 = 0.5	833.15	824.35	1277	1239	1.462	1.121
x2 = 0.5509	835.22	826.29	1273	1235	1.263	1.004
x2 = 0.5995	837.33	828.32	1271	1234	1.104	0.912
x2 = 0.6486	839.67	830.43	1270	1232	0.947	0.836
x2 = 0.701	842.33	832.94	1270	1233	0.88	0.77
x2 = 0.7477	844.88	835.37	1271	1234	0.791	0.707
x2 = 0.7989	847.89	838.32	1273	1237	0.716	0.649
x2 = 0.8513	851.18	841.6	1278	1241	0.628	0.569
x2 = 0.9	854.46	844.93	1286	1247	0.636	0.573
x2 = 0.9511	858.12	848.66	1294	1255	0.574	0.506

Source: the NIST ThermoML archive (doi:10.1016/j.fluid.2007.01.001)
